Test results published in patent US20030162834A1, “Natural physiologically active material effective on fish diseases and fish food containing the material” (priority 1998, published 2003).

How the values were obtained:
Cryptocaryon irritans [1] = assay: Trial 8: octanoic acid versus its monoglyceride and triglyceride, oral, red sea bream; type: in vivo; details: diet amount equal to 17.5 mM octanoic acid residues (2.5 g acid, 3.8 g monoglyceride, 2.7 g triglyceride per kg)
Source text: Fish tested: Red sea bream weighing approximately 15.8 g in average.
Trial groups: Four groups, i.e., an octanoic-acid added group in which fish were fed diets added with octanoic acid, a monoglyceride added group in which fish were fed diets added with monoglyceride of octanoic acid, a triglyceride added group in which fish were fed diets added with triglyceride of octanoic acid, and a control group in which fish were fed diets added with neither octanoic acid nor glycerides. The feeding rate was 3% of fish weight/day for each group.
Trial diets: The diets added with octanoic acid were prepared by spraying 2.5 g (17.5 mM with respect to the diet weight) of octanoic acid to 1 kg of commercially available pellets for red sea bream. […]. Specifically, the diets added with monoglyceride and triglyceride were prepared respectively by spraying 3.8 g of monoglyceride and 2.7 g of triglyceride to 1 kg of the commercially available pellets for red sea bream. The control group fish were fed the commercially available pellets for red sea bream.
Challenge trial: Each 10 pieces of fish from among a shoal of fish, in which no diseases such as Cryptocaryon irritans infection were found, were put in a 100-liter water tank, and were fed the respective trial diets. After 5 days, approximately 2000 individuals of theronts of Cryptocaryon irritans were put into each water tank to infect the fish while water flow was stopped for 1 hour. Then, bleeding was continued for 31 days while feeding the respective trial diets. During the trial period, the water temperature was 24+−1 degrees centigrade and the water was exchanged at 20 cycles/day.
Evaluation was made by sampling 5 pieces of fish from each group after 18 and 31 days from the start of the challenge, and comparing the number of the parasites attaching to the gill of each fish.

Cryptocaryon irritans [2] = assay: In vitro assay of glycerides of octanoic acid against Cryptocaryon irritans; type: cell-based
[3] = test system: parasites (Heterobothrium okamotoi, Cryptocaryon irritans); assay: Trial 1: overall statements on efficacy of fatty acids against parasites; type: cell-based; details: Trial 1 summary; C12 at a low concentration, not the same condition
Experimental: Fatty acids having carbon number C2, C4 and C6-C10 were each dissolved in seawater at 1 mM concentration, and oncomiracidia of Heterobothrium okamotoi and larvae attaching to the gill were immersed in the seawater solutions. After 2 hours from the start of immersion, the efficacy of the fatty acids was investigated by counting the number of dead oncomiracidia and the number of larvae dropping down from the gill. More than 30 individuals of parasites were transferred to each group.
For Cryptocaryon irritans, fatty acids having carbon number C2, C4 and C6-C10 were each dissolved in seawater at 0.5 mM concentration, and theronts of Cryptocaryon irritans were immersed in the seawater solutions. After 1 hour from the start of immersion, the efficacy of the fatty acids was investigated by counting the number of dead theronts. More than 200 individuals of parasites were transferred to each group.
For any of the groups, the trial was made under condition of 20 degrees centigrade.

fish bacteria = assay: Trial 11: overall statement on C12 against fish bacteria; type: cell-based; details: low concentration, not the same condition as 500 ppm
Experimental: The turbidimetric analysis was employed. […] A number 1×10^5 of typical bacteria (Vibrio anguillarum, Edwardsiella tarda and Enterococcus seriolicida) causing the fish bacterial diseases were inoculated in each adjusted culture medium, followed by cultivation for 13 hours at 23 degrees centigrade. After the cultivation, turbidity of the culture medium was measured at 600 nm to determine the amount of multiplied bacteria. The trial was conducted two times. Results are shown in FIG. 19 (Vibrio anguillarum), FIG. 20 (Edwardsiella tarda), and FIG. 21 (Enterococcus seriolicida).

Solubility = type: physicochemical
[4] = test system: Vibrio sp. infection and gliding bacterium infection; assay: Trial 12: bleeding trial on spotted plaice with occurred bacterial disease; type: in vivo
Source text: Spotted plaice weighing approximately 60 g in average was employed in this trial. Each 270 pieces of spotted plaice were put in off-shore net pens of 4×4×2.5 m, and bled for 100 days. […] The number of dead fish and the fish situations were observed. The fish were fed twice per day, i.e., in the morning and evening. The water temperature during the trial period was in the range of 14-17 degrees centigrade.

Edwardsiella tarda = assay: Trial 11: turbidimetric antibacterial assay; type: cell-based; details: 500 ppm in BHI liquid culture medium, 13 hours, 23 degrees centigrade
Experimental: (§1) The turbidimetric analysis was employed. Fatty acids of C2, C4, C6-C10 were each dissolved in 2 ml of BHI liquid culture medium at 500 ppm concentration. A number 1×10^5 of typical bacteria (Vibrio anguillarum, Edwardsiella tarda and Enterococcus seriolicida) causing the fish bacterial diseases were inoculated in each adjusted culture medium, followed by cultivation for 13 hours at 23 degrees centigrade. After the cultivation, turbidity of the culture medium was measured at 600 nm to determine the amount of multiplied bacteria. The trial was conducted two times. Results are shown in FIG. 19 (Vibrio anguillarum), FIG. 20 (Edwardsiella tarda), and FIG. 21 (Enterococcus seriolicida).

Enterococcus seriolicida = assay: Trial 11: turbidimetric antibacterial assay; type: cell-based; details: 500 ppm in BHI liquid culture medium, 13 hours, 23 degrees centigrade
Experimental: as §1

Vibrio anguillarum = assay: Trial 11: turbidimetric antibacterial assay; type: cell-based; details: 500 ppm in BHI liquid culture medium, 13 hours, 23 degrees centigrade
Experimental: as §1

Heterobothrium okamotoi = details: drug bath about one hour, about 800 ppm formalin; cited from earlier work
[5] = diets containing 0.5% decanoic acid fed from the 64-th day

CCCCCCCC(=O)OCC(COC(=O)CCCCCCC)OC(=O)CCCCCCC [triglyceride of octanoic acid]
number of parasites attaching to the gill after 18 and 31 days, versus control (Cryptocaryon irritans [1]): apparently fewer
antibacterial activity against Cryptocaryon irritans (Cryptocaryon irritans [2]): no antibacterial activity

CCCCCCCCCCCC(=O)O [C12, lauric acid]
efficacy against parasites [3]: a similar activity was found even at a low concentration
antibacterial activity (fish bacteria): a similar activity was found even at a low concentration
solubility in seawater (Solubility; Trial 1 conditions (1 mM / 0.5 mM)): so low in solubility that the trial could not be made under the same condition
solubility in BHI liquid culture medium (Solubility; Trial 11 conditions (500 ppm)): so low in solubility that the trial could not be made under the same condition

CCCCCCCC(=O)OCC(O)CO (stereo not drawn) [monoglyceride of octanoic acid]
number of parasites attaching to the gill after 18 and 31 days, versus control (Cryptocaryon irritans [1]): apparently fewer
antibacterial activity against Cryptocaryon irritans (Cryptocaryon irritans [2]): an antibacterial activity though at a lower level than octanoic acid

CN(C)[C@@H]1C(O)=C(C(N)=O)C(=O)[C@@]2(O)C(O)=C3C(=O)c4c(O)cccc4[C@@](C)(O)[C@H]3[C@H](O)[C@@H]12 [OTC, exytetracycline, reference compound]
number of dead fish after application ([4]; OTC in diet 6 days (22-th to 27-th day), 0.5 g of 10% OTC/kg of fish weight): reduced
complete remedy of the Vibrio sp. infection ([4]; OTC in diet 6 days, 0.5 g of 10% OTC/kg of fish weight): not confirmed

CCCCCCCCCC(=O)O [decanoic acid]
antibacterial activity (turbidity at 600 nm) (Edwardsiella tarda): showed an antibacterial activity
antibacterial activity (turbidity at 600 nm) (Enterococcus seriolicida): showed an antibacterial activity
antibacterial activity (turbidity at 600 nm) (Vibrio anguillarum): showed an antibacterial activity
dead fish after the 72-th day from the start of the trial [4, 5]: no dead fish were found
fish suffering abrasion and bleeding due to the infections [4, 5]: not found
number of dead fish after feeding [4, 5]: apparently reduced

CCCCCCCCC(=O)O [C9, pelargonic acid]
antibacterial activity (turbidity at 600 nm) (Edwardsiella tarda): showed an antibacterial activity
antibacterial activity (turbidity at 600 nm) (Enterococcus seriolicida): showed an antibacterial activity
antibacterial activity (turbidity at 600 nm) (Vibrio anguillarum): showed an antibacterial activity

C=O [formalin]
effect on adult parasites (Heterobothrium okamotoi): cannot destroy adult parasites at all
larvae destroyed (Heterobothrium okamotoi): ≤ 80%
